Here are results for 21 molecules from PubChem BioAssay AID330 (DTP/NCI, 2004).

For the experiment, the system named is P388 leukemia ip, CD2F1 mice, survival T/C. As to the kind of experiment: NCI In Vivo Anticancer Drug Screen. Data for tumor model P388 Leukemia (intraperitoneal) in CD2F1 (CDF1) mice. The settings on record: endpoint: median survival time, higher = longer survival. In short, it runs like this:
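Mice carrying the transplanted tumor received test compound or vehicle. Survival was recorded in each group, and the value is the treated-group measurement divided by that of the vehicle-treated control group.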

The mark [1] stands for this setting: dose: 6.25 mg/kg/injection, schedule: Q01DX009 (ip), vehicle: saline with Tween-80.
The mark [2] stands for this setting: dose: 12.5 mg/kg/injection, schedule: Q01DX009 (ip), vehicle: saline with Tween-80.
The mark [3] stands for this setting: dose: 15.0 mg/kg/injection, schedule: Q01DX005 (ip), vehicle: saline with Tween-80.
[4] abbreviates: dose: 30.0 mg/kg/injection, schedule: Q01DX005 (ip), vehicle: saline with Tween-80.
[5] abbreviates: dose: 60.0 mg/kg/injection, schedule: Q01DX005 (ip), vehicle: saline with Tween-80.
Setting [6] is: dose: 50.0 mg/kg/injection, schedule: Q01DX009 (ip), vehicle: saline with Tween-80.
Setting [7] is: dose: 100.0 mg/kg/injection, schedule: Q01DX009 (ip), vehicle: saline with Tween-80.
Setting [8] is: dose: 200.0 mg/kg/injection, schedule: Q01DX009 (ip), vehicle: saline with Tween-80.
[9] abbreviates: dose: 25.0 mg/kg/injection, schedule: Q01DX009 (ip), vehicle: saline with Tween-80.
[10] abbreviates: dose: 50.0 mg/kg/injection, schedule: Q01DX005 (ip), vehicle: saline.

The structures appear in SMILES notation. Values joined by “and” are separate entries in the source; they are usually repeats but may differ in a detail not shown here. Identical values can stand only once. Toxic doses and inconclusive results are not listed.

For `COc1ccc(/C(C)=N/[O-])cc1CS[n+]1ccccc1`, the T/C (dose: 50.0 mg/kg/injection, schedule: Q01DX005 (ip), vehicle: distilled water + Tween-80 + alcohol) was 104 % of control; the T/C (dose: 100.0 mg/kg/injection, schedule: Q01DX005 (ip), vehicle: distilled water + Tween-80 + alcohol) is 95 % of control; the T/C (dose: 200.0 mg/kg/injection, schedule: Q01DX005 (ip), vehicle: distilled water + Tween-80 + alcohol) was 104 % of control.

Consider `Fc1ccc(NC(=S)SCc2ccco2)cc1`, for which the T/C runs as follows: (dose: 50.0 mg/kg/injection, schedule: Q01DX009 (ip), vehicle: suspension in saline) 101 % of control; (dose: 100.0 mg/kg/injection, schedule: Q01DX009 (ip), vehicle: suspension in saline) 98 % of control; (dose: 200.0 mg/kg/injection, schedule: Q01DX009 (ip), vehicle: suspension in saline) 92 % of control.

In the case of `C=CC(=NC(C)(C)C)Nc1c(Cl)cccc1Cl`, the T/C runs as follows: (dose: 0.79 mg/kg/injection, schedule: Q01DX009 (ip), vehicle: saline) 100 % of control; (dose: 1.56 mg/kg/injection, schedule: Q01DX009 (ip), vehicle: saline) 96 % of control; (dose: 3.12 mg/kg/injection, schedule: Q01DX009 (ip), vehicle: saline) 108 % of control; under setting [1], 114 % of control; under setting [2], 119 % of control; (dose: 12.5 mg/kg/injection, schedule: Q01DX009 (ip), vehicle: saline) 109 % of control. Moreover, the T/C (dose: 25.0 mg/kg/injection, schedule: Q01DX009 (ip), vehicle: saline) is 116 % of control.

Turning to `Cc1ccc(-n2c(=O)c3[nH]c4ccccc4sc=3c2=O)cc1`, the T/C reads like this: (dose: 50.0 mg/kg/injection, schedule: Q01DX005 (ip), vehicle: saline with Tween-80) 102 % of control; (dose: 100.0 mg/kg/injection, schedule: Q01DX005 (ip), vehicle: saline with Tween-80) 95 % of control; (dose: 200.0 mg/kg/injection, schedule: Q01DX005 (ip), vehicle: saline with Tween-80) 91 % of control.

As to `c1ccc2c(c1)c1ccccc1c1n[se]nc21`, the T/C by setting is: under setting [3], 90 % of control; under setting [4], 90 % of control; under setting [5], 98 % of control.

Take `Clc1cccc(NN=Nc2ccccc2)c1`: the T/C is, setting by setting: (dose: 50.0 mg/kg/injection, schedule: Q01DX009 (ip), vehicle: Klucel (hydroxypropylcellulose) (HPC)) 104 % of control; (dose: 100.0 mg/kg/injection, schedule: Q01DX009 (ip), vehicle: Klucel (hydroxypropylcellulose) (HPC)) 96 % of control; (dose: 200.0 mg/kg/injection, schedule: Q01DX009 (ip), vehicle: Klucel (hydroxypropylcellulose) (HPC)) 103 % of control.

For the molecule `CCc1nc(N)nc(N)c1-c1ccc(Cl)c(NC(C)=O)c1`, the T/C runs as follows: (dose: 3.13 mg/kg/injection, schedule: Q01DX009 (ip), vehicle: distilled water + Tween-80) 94 % of control; (dose: 6.25 mg/kg/injection, schedule: Q01DX009 (ip), vehicle: distilled water + Tween-80) 94 % of control; (dose: 12.5 mg/kg/injection, schedule: Q01DX009 (ip), vehicle: distilled water + Tween-80) 94 % of control; (dose: 25.0 mg/kg/injection, schedule: Q01DX009 (ip), vehicle: distilled water + Tween-80) 88 % of control; (dose: 50.0 mg/kg/injection, schedule: Q01DX009 (ip), vehicle: distilled water + Tween-80) 91 % of control.

Take `COc1cc2c(cc1OC)C13CCCC4(OCCO4)C1=CC2(C)O3` (configuration not stated): the T/C was 101 % of control under setting [6], 94 % of control under setting [7] and 93 % of control under setting [8].

As to `COc1ccc(/C(O)=C/c2nc3cccc([N+](=O)[O-])c3[nH]c2=O)cc1`, the T/C is 91 % of control under setting [3], 91 % of control under setting [4] and 86 % of control under setting [5].

As for `N#Cc1c(-c2ccc(Cl)cc2)c(-c2ccc(Cl)cc2)n[nH]c1=O`, the T/C (dose: 50.0 mg/kg/injection, schedule: Q01DX005 (ip), vehicle: Klucel (hydroxypropylcellulose) (HPC)) is 100 % of control; the T/C (dose: 100.0 mg/kg/injection, schedule: Q01DX005 (ip), vehicle: Klucel (hydroxypropylcellulose) (HPC)) was 99 % of control; the T/C (dose: 200.0 mg/kg/injection, schedule: Q01DX005 (ip), vehicle: Klucel (hydroxypropylcellulose) (HPC)) was 104 % of control.

Regarding `CCCC12C=C(OC)C(=O)C=C1OC(c1cc(OC)c(OC)c(OC)c1)C2C` (configuration not stated), the T/C is, setting by setting: (dose: 8.75 mg/kg/injection, schedule: Q01DX005 (ip), vehicle: Klucel (hydroxypropylcellulose) (HPC)) 101 % of control; (dose: 17.5 mg/kg/injection, schedule: Q01DX005 (ip), vehicle: Klucel (hydroxypropylcellulose) (HPC)) 96 % of control; (dose: 35.0 mg/kg/injection, schedule: Q01DX005 (ip), vehicle: Klucel (hydroxypropylcellulose) (HPC)) 100 % of control.

With `CC1CCCC(NC(=O)N(CCCl)N=O)C1` (configuration not stated), the T/C (dose: 4.0 mg/kg/injection, schedule: Q04DX003 (ip), vehicle: saline with Tween-80) is 118 % of control; the T/C under setting [1] is 175 % of control; the T/C under setting [2] was 225 % of control; the T/C (dose: 16.0 mg/kg/injection, schedule: Q04DX003 (ip), vehicle: saline with Tween-80) was 177 % of control; the T/C under setting [9] was 272 % of control and 295 % of control; the T/C (dose: 25.0 mg/kg/injection, schedule: Q04DX003 (ip), vehicle: saline with Tween-80) was 245 % of control. For the same molecule, where the note is “dose: 50.0 mg/kg/injection, schedule: Q04DX003 (ip), vehicle: saline with Tween-80”, the T/C was 118 % of control.

In the case of `CC1=CN2C3=NCCN3C3=[N+](C)CCN3C2C=C1` (configuration not stated), the T/C (dose: 12.5 mg/kg/injection, schedule: Q01DX005 (ip), vehicle: saline) is 104 % of control; the T/C (dose: 25.0 mg/kg/injection, schedule: Q01DX005 (ip), vehicle: saline) was 101 % of control; the T/C under setting [10] is 100 % of control and 112 % of control.

For the molecule `C=C(C(=O)N(C(C)C)C(C)C)C(C)C(C)(C)O` (configuration not stated), the T/C reads like this: (dose: 50.0 mg/kg/injection, schedule: Q04DX002 (ip), vehicle: Klucel (hydroxypropylcellulose) (HPC)) 101 % of control; (dose: 100.0 mg/kg/injection, schedule: Q04DX002 (ip), vehicle: Klucel (hydroxypropylcellulose) (HPC)) 101 % of control.

For the molecule `COc1cc(Br)cc(OC)c1N`, the T/C is, setting by setting: under setting [6], 97 % of control; under setting [7], 100 % of control; under setting [8], 105 % of control.

As to `CCOC(=O)CCC1(C(=O)OC)C(=O)CCCCCCC1C(=O)OC` (configuration not stated), the T/C under setting [7] is 95 % of control; the T/C under setting [8] is 100 % of control; the T/C (dose: 400.0 mg/kg/injection, schedule: Q01DX009 (ip), vehicle: saline with Tween-80) is 100 % of control.

With `S=c1nc[nH]c2c1ncn2C1CCCC1`, the T/C (dose: 100.0 mg/kg/injection, schedule: Q04DX003 (ip), vehicle: saline with Tween-80) was 104 % of control; the T/C (dose: 200.0 mg/kg/injection, schedule: Q04DX003 (ip), vehicle: saline with Tween-80) was 104 % of control; the T/C (dose: 400.0 mg/kg/injection, schedule: Q04DX003 (ip), vehicle: saline with Tween-80) was 90 % of control.

In the case of `CC(=O)SSC(C)(C)C`, the T/C was 105 % of control under setting [10]; 114 % of control (dose: 100.0 mg/kg/injection, schedule: Q01DX005 (ip), vehicle: saline); 103 % of control (dose: 200.0 mg/kg/injection, schedule: Q01DX005 (ip), vehicle: saline).

As for `COC(=O)[C@@]12C(=O)N[C@@H](Cc3ccccc3)[C@@H]1[C@H](C)C(C)=C[C@@H]2CO`, the T/C runs as follows: (dose: 60.0 mg/kg/injection, schedule: Q01DX005 (ip), vehicle: saline) 98 % of control; (dose: 120.0 mg/kg/injection, schedule: Q01DX005 (ip), vehicle: saline) 95 % of control; (dose: 240.0 mg/kg/injection, schedule: Q01DX005 (ip), vehicle: saline) 98 % of control.

As to `CC(=NC(C)C)Nc1ccc(Cl)cc1`, the T/C reads like this: under setting [9], 107 % of control; under setting [6], 105 % of control; under setting [7], 92 % of control.

As for `CN1C(=O)N(C)C2(C(=O)N(C)C(=O)N2C)N(C)C1=O`, the T/C reads like this: (dose: 60.0 mg/kg/injection, schedule: Q01DX005 (ip), vehicle: Klucel (hydroxypropylcellulose) (HPC)) 99 % of control and 102 % of control; (dose: 120.0 mg/kg/injection, schedule: Q01DX005 (ip), vehicle: Klucel (hydroxypropylcellulose) (HPC)) 96 % of control; (dose: 240.0 mg/kg/injection, schedule: Q01DX005 (ip), vehicle: Klucel (hydroxypropylcellulose) (HPC)) 98 % of control and 105 % of control.
